Measurements: ChEMBL document CHEMBL3259530, “Scaffold hopping approach to a new series of smoothened antagonists” (Bioorg Med Chem Lett, 2014)

target: Protein smoothened (Homo sapiens, UniProt Q99835); assay: Inhibition of Smo receptor (unknown origin) expressed in NIH3T3 cells assessed as inhibition of Smo agonist SAG-induced GRE activation after 30 hrs by luciferase reporter gene assay; type: cell-based
Sequence (Q99835 whole entry): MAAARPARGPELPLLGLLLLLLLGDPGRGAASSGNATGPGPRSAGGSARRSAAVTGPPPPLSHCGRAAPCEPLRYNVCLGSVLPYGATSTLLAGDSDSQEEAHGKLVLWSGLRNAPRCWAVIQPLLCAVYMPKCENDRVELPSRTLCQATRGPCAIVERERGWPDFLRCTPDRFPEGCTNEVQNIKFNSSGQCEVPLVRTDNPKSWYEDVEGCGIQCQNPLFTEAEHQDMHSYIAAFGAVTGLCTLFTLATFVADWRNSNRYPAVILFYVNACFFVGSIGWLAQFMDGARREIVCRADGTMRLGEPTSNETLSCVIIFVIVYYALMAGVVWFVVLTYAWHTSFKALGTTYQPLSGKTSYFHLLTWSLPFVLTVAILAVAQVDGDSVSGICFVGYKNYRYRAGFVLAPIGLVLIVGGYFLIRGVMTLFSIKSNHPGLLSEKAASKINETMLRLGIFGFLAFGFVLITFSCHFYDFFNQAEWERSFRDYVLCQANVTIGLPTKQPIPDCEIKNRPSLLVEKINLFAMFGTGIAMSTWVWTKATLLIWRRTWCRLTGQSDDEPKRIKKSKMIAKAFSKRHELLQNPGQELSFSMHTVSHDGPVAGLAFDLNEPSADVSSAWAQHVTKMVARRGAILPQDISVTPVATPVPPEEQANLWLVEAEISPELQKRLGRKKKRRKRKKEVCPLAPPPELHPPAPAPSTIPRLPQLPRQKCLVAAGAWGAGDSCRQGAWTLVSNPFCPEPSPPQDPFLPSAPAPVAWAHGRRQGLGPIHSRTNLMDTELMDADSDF

Compound	IC50 [µM]
Cc1cnc(-c2cc(N3CCn4cc(C(=O)O)nc4C3)ncc2Cl)c(C)c1	> 10
Cc1cnc(-c2cc(N3CCn4cc(C(=O)OCC5CC5)nc4C3)ncc2Cl)c(C)c1	0.27
Cc1cnc(-c2cc(N3CCn4cc(C(=O)N5CCCC5)nc4C3)ncc2Cl)c(C)c1	0.27
Cc1cnc(-c2cc(N3CCn4cc(NC(=O)C(F)(F)F)nc4C3)ncc2Cl)c(C)c1	1.8
Cc1cnc(-c2cc(N3CCn4cc(C(=O)Nc5ccccc5)nc4C3)ncc2Cl)c(C)c1	0.3
COCC(=O)Nc1cn2c(n1)CN(c1cc(-c3ncc(C)cc3C)c(Cl)cn1)CC2	0.65
Cc1cnc(-c2cc(N3CCn4cc(C(=O)OC(C)C)nc4C3)ncc2Cl)c(C)c1	0.38
Cc1cnc(-c2cc(N3CCn4cc(C(=O)Nc5ccc(F)cc5)nc4C3)ncc2Cl)c(C)c1	0.44
Cc1cnc(-c2cc(N3CCn4cc(C(=O)Nc5ccc(F)c(F)c5)nc4C3)ncc2Cl)c(C)c1	0.42
Cc1cnc(-c2cc(N3CCn4cc(C(=O)N5CCOCC5)nc4C3)ncc2Cl)c(C)c1	0.79
Cc1cnc(-c2cc(N3CCn4cc(CO)nc4C3)ncc2Cl)c(C)c1	4.1
Cc1cnc(-c2cc(N3CCn4cc(C(=O)OC5CCCC5)nc4C3)ncc2Cl)c(C)c1	0.74
Cc1cnc(-c2cc(N3CCn4cc(C(=O)N(C)CCO)nc4C3)ncc2Cl)c(C)c1	4.1
Cc1cnc(-c2cc(N3CCn4cc(C(=O)Nc5ccccc5F)nc4C3)ncc2Cl)c(C)c1	0.35
Cc1cnc(-c2cc(N3CCn4cc(C(=O)N5CCC(O)CC5)nc4C3)ncc2Cl)c(C)c1	1.2
Cc1cnc(-c2cc(N3CCn4cc(CN5CCOCC5)nc4C3)ncc2Cl)c(C)c1	0.91
Cc1cnc(-c2cc(N3CCn4cc(C(=O)N5CCC(O)C5)nc4C3)ncc2Cl)c(C)c1 (centres undefined)	> 10
CCNC(=O)c1cn2c(n1)CN(c1cc(-c3ncc(C)cc3C)c(Cl)cn1)CC2	1.3
Cc1cnc(-c2cc(N3CCn4cc(C(=O)N5CC(C)NC(C)C5)nc4C3)ncc2Cl)c(C)c1 (centres undefined)	1.5
CCC(=O)Nc1cn2c(n1)CN(c1cc(-c3ncc(C)cc3C)c(Cl)cn1)CC2	0.89
Cc1cnc(-c2cc(N3CCn4cc(C(=O)Nc5cccc(F)c5)nc4C3)ncc2Cl)c(C)c1	0.087
Cc1cnc(-c2cc(N3CCn4cc(C(=O)NCC5CC5)nc4C3)ncc2Cl)c(C)c1	0.52
CCOC(=O)c1cn2c(n1)CN(c1cc(-c3ncc(C)cc3C)c(Cl)cn1)CC2	0.69
Cc1cnc(-c2cc(N3CCn4cc(C(=O)Oc5ccccc5)nc4C3)ncc2Cl)c(C)c1	0.96
Cc1cnc(-c2cc(N3CCn4cc(C(=O)N5CC(O)C5)nc4C3)ncc2Cl)c(C)c1	> 10
CNC(=O)c1cn2c(n1)CN(c1cc(-c3ncc(C)cc3C)c(Cl)cn1)CC2	2.7
Cc1cnc(-c2cc(N3CCn4cc(C(=O)Nc5ccccn5)nc4C3)ncc2Cl)c(C)c1	0.27
Cc1cnc(-c2cc(N3CCn4cc(C(=O)Nc5cccnc5)nc4C3)ncc2Cl)c(C)c1	0.2
COC[C@H]1CCCN1C(=O)c1cn2c(n1)CN(c1cc(-c3ncc(C)cc3C)c(Cl)cn1)CC2	0.55
